Laboratory results taken from patent publication EP4678638A1, “NEW E3 UBIQUITIN LIGASE LIGAND, PROTEIN DEGRADATION AGENT AND USE THEREOF” (priority 2023, dated 2024).

Tests used:
SR = assay: CCK-8 proliferation, SR; assay type: cell-based, Human; details: Homo sapiens; Table B6, compounds designed based on the ALK inhibitors; SR cells; read-out: Inhibitory activity (IC50, nM) on tumor cell proliferation, SR
Method in brief: (§1)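 CCK-8 viability readout; IC50 from growth-inhibition curve fitting. Cells plated, dosed 24h later with a 10-point series, top 10µM, 5-fold steps. Culture at 37°C, 5% CO2.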

ALK = target: T1, ALK (Homo sapiens, UniProt Q96SW2+Q9HC35+Q9UM73); assay: Western blot degradation of ALK (H2228 Cell); assay type: cell-based; details: Table D5
T1 construct: evaluate the effects of the compounds of the present disclosure on the expression of target proteins in cells; endogenous in cells; host or cells: H2228
T1 sequence (Q9HC35+Q9UM73 fused): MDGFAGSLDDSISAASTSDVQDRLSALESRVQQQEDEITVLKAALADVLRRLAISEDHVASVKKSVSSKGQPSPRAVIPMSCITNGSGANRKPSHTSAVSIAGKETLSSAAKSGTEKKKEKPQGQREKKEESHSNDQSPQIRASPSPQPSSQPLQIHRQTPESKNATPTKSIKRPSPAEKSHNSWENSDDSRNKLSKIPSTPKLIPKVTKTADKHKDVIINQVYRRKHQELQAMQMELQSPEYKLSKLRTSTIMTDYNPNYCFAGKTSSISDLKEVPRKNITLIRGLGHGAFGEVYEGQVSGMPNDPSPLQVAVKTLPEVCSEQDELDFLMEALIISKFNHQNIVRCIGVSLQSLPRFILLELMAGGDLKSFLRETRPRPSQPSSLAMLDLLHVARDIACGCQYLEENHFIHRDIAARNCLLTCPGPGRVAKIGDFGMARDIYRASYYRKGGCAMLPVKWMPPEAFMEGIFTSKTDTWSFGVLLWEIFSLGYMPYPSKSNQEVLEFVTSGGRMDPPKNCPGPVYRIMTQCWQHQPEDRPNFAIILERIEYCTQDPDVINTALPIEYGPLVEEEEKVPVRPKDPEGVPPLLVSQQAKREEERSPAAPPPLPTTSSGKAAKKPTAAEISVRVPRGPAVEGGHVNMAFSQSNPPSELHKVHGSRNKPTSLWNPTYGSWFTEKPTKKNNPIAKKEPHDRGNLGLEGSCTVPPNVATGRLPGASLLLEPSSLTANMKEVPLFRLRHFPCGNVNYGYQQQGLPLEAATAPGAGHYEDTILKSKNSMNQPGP
T1 sequence (Q96SW2 whole entry): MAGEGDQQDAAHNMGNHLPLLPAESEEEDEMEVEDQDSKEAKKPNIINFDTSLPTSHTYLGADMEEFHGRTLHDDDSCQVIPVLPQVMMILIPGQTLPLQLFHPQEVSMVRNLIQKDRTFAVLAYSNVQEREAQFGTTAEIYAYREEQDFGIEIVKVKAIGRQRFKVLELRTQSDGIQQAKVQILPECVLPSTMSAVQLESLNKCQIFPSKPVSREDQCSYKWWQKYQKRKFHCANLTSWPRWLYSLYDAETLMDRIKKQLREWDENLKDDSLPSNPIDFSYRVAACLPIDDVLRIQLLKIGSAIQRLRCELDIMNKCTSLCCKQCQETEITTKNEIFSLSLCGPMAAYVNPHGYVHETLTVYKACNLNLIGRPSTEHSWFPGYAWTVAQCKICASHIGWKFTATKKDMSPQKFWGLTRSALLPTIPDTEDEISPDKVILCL
T1 sequence (Q16531 whole entry partner): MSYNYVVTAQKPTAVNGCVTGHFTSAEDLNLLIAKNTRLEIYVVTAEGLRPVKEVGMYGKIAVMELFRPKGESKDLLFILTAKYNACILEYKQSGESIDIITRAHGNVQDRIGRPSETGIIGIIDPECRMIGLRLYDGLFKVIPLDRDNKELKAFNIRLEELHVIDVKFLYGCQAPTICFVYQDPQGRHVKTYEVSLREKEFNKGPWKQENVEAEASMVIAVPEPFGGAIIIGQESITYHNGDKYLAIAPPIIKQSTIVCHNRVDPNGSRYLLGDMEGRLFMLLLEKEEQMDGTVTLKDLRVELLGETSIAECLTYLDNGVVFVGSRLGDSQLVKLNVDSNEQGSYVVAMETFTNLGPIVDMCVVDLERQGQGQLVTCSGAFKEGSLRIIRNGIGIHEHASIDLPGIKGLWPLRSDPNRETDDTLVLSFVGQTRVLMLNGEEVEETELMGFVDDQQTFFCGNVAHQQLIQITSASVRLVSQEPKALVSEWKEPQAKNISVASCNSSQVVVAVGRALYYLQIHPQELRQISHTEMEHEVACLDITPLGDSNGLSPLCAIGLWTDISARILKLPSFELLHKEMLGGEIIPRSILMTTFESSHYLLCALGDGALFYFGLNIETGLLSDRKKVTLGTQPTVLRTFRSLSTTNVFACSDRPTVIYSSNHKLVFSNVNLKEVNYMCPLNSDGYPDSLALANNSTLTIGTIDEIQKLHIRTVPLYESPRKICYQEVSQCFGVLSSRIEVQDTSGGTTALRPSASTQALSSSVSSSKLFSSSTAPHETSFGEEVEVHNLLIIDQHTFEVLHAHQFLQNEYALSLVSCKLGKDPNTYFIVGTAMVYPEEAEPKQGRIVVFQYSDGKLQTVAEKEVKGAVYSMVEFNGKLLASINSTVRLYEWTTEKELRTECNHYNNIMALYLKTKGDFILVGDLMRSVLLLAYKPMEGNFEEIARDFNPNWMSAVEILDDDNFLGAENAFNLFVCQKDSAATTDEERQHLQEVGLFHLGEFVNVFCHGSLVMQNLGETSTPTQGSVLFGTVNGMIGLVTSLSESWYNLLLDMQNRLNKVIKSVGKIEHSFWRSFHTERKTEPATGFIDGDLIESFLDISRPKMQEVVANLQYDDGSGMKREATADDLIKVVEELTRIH
Experimental: Conventional Western blot assay was performed to evaluate the effects of the compounds of the present disclosure on the expression of target proteins in cells.
(1) Cell Seeding and Protein Harvesting: The selected cells were processed according to the cell seeding procedure and protein harvesting procedure in Table III-2. Table III-2 Cell Seeding and Protein Harvesting Procedures
(2) To the collected supernatant, 5X SDS sample loading buffer was added, followed by denaturation at 95°C for 5 minutes. The denatured samples were then separated by SDS-PAGE electrophoresis on a polyacrylamide gel. Proteins were transferred to a nitrocellulose membrane (0.45 µm NC membrane), blocked with blocking buffer at room temperature for 1 hour, and subjected to antibody incubation and development procedures according to the antibody manufacturer's instructions (Cell Signaling Technology).
Half-Maximal Degradation Concentration value (the drug concentration required for degrading proteins by 50%, abbreviated as DC50) reads method: comparing the grayscale values of Western blot bands from drug-treated samples with those from blank DMSO-treated controls, and identifying the drug concentration range at which the grayscale value is half that of the DMSO-treated control bands.
DC50 values can be calculated using ImageJ software to measure grayscale values of Western blot bands from drug-treated samples. The concentration-response curve is fitted to estimate the drug concentration corresponding to half the grayscale value.
Target protein remaining (%) refers to the percentage of target protein remaining in hPBMC cells after treatment with protein degrader compounds.
Calculation method for target protein remaining (%): Use ImageJ software to measure grayscale values of Western blot bands from drug (protein degrader)-treated samples. The grayscale value of drug-treated bands is divided by that of internal control protein bands, and the resulting quotient is normalized to obtain the relative percentage of remaining target protein after protein degrader treatment.
Target protein degradation rate (%) = 100% - target protein remaining (%).

[1] = target: T2, human Cereblon WT GST-tagged protein (Homo sapiens, UniProt Q96SW2); assay: CRBN binding, HTRF (CEREBLON BINDING kit); details: Table II-2, CRBN binding screening, HTRF; for inhibition at 0.5 µM: read-out: Inhibition rate (%) at 0.5µM; for inhibition at 2 µM: read-out: Inhibition rate (%) at 2 µM
T2 construct: purchased CISBIO 64BDCRBNPEH
T2 sequence (Q96SW2 whole entry): as the sequence (Q96SW2 whole entry) above
Method in brief: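 After 3 h at room temperature, emission at 665 and 620 nm was measured in a homogeneous time-resolved fluorescence format. Compounds competed with a Thalidomide-Re probe for GST-tagged wild-type human CRBN, which was labelled with a Eu anti-GST antibody.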

H1975 = assay: CCK-8 proliferation, NCI-H1975 (H1975); assay type: cell-based, Human; details: Homo sapiens, NCI-H1975; Table B6, compounds designed based on the ALK inhibitors; H1975 cells; read-out: Inhibitory activity (IC50, nM) on tumor cell proliferation, H1975
Method in brief: as §1

H2228 = assay: CCK-8 proliferation, NCI-H2228 (H2228); assay type: cell-based; details: Homo sapiens, NCI-H2228; Table B6, compounds designed based on the ALK inhibitors; H2228 cells; read-out: Inhibitory activity (IC50, nM) on tumor cell proliferation, H2228
Method in brief: as §1

SMILES | IC50 (SR) | Degradation of substrate protein ALK (substrate protein remaining %) (ALK) | inhibition at 0.5 µM [1] | inhibition at 2 µM [1] | IC50 (H1975) | IC50 (H2228)
COc1cc(N2CCN(Cc3ccc(C4CCC(=O)NC4=O)cc3)CC2)ccc1Nc1ncc(Cl)c(Nc2ccccc2P(C)(C)=O)n1 (stereo not shown) [GT-03781, 3-(4-((4-(4-((5-chloro-4-((2-(dimethylphosphoryl)phenyl)amino)pyrimidin-2-yl)amino)-3-methoxyphenyl)piperazin-1-yl)methyl)phenyl)piperidine-2,6-dione] | 1 to 10 nM | A (A is defined as 0% ≤ substrate protein remaining % ≤ 80%) | 40 to 53% | 60 to 80% | 500 to 1000 nM | 
COc1cc(N2CCN(Cc3ccc(C4CCC(=O)NC4=O)c(F)c3)CC2)ccc1Nc1ncc(Cl)c(Nc2ccccc2P(C)(C)=O)n1 (stereo not shown) [GT-03782, 3-(4-((4-(4-((5-chloro-4-((2-(dimethylphosphoryl)phenyl)amino)pyrimidin-2-yl)amino)-3-methoxyphenyl)piperazin-1-yl)methyl)-2-fluorophenyl)piperidine-2,6-dione] | 10 to 50 nM | A (A is defined as 0% ≤ substrate protein remaining % ≤ 80%) | 40 to 53% | 80 to 100% |  | 
CCc1cc2c(cc1N1CCN(Cc3cccc(N4CCC(=O)NC4=O)c3)CC1)C(C)(C)c1[nH]c3cc(C#N)ccc3c1C2=O [GT-07325, 8-(4-(3-(2,4-dioxotetrahydropyrimidin-1(2H)-yl)benzyl)piperazin-1-yl)-9-ethyl-6,6-dimethyl-11-oxo-6,11-dihydro-5H-benzo[b]carbazole-3-carbonitrile] | 10 to 50 nM | A (A is defined as 0% ≤ substrate protein remaining % ≤ 80%) |  |  |  | 100 to 500 nM
CCc1cc2c(cc1N1CCN(Cc3ccc(N4CCC(=O)NC4=O)cn3)CC1)C(C)(C)c1[nH]c3cc(C#N)ccc3c1C2=O [GT-07326, 8-(4-((5-(2,4-dioxotetrahydropyrimidin-1(2H)-yl)pyridin-2-yl)methyl)piperazin-1-yl)-9-ethyl-6,6-dimethyl-11-oxo-6,11-dihydro-5H-benzo[b]carbazole-3-carbonitrile] | 10 to 50 nM | A (A is defined as 0% ≤ substrate protein remaining % ≤ 80%) |  |  |  | 100 to 500 nM
CCc1cc2c(cc1N1CCN(Cc3cccc(NC4CCC(=O)NC4=O)c3)CC1)C(C)(C)c1[nH]c3cc(C#N)ccc3c1C2=O (stereo not shown) [GT-07328, 8-(4-(3-((2,6-dioxopiperidin-3-yl)amino)benzyl)piperazin-1-yl)-9-ethyl-6,6-dimethyl-11-oxo-6,11-dihydro-5H-benzo[b]carbazole-3-carbonitrile] | 10 to 50 nM | A (A is defined as 0% ≤ substrate protein remaining % ≤ 80%) |  |  |  | 100 to 500 nM
COc1cc(N2CCN(Cc3ccc(N4CCC(=O)NC4=O)cc3F)CC2)ccc1Nc1ncc(Cl)c(Nc2ccccc2P(C)(C)=O)n1 [GT-07347, 1-(4-((4-(4-((5-chloro-4-((2-(dimethylphosphoryl)phenyl)amino)pyrimidin-2-yl)amino)-3-methoxyphenyl)piperazin-1-yl)methyl)-3-fluorophenyl)dihydropyrimidine-2,4(1H,3H)-dione] | 10 to 50 nM | A (A is defined as 0% ≤ substrate protein remaining % ≤ 80%) |  |  | 100 to 500 nM | 100 to 500 nM
Cc1cc(Nc2ncc(Cl)c(Nc3ccccc3S(=O)(=O)C(C)C)n2)c(OC(C)C)cc1C1CCN(Cc2cccc(NC3CCC(=O)NC3=O)c2)CC1 (stereo not shown) [GT-07594, 3-((3-((4-(4-((5-chloro-4-((2-(isopropylsulfonyl)phenyl)amino)pyrimidin-2-yl)amino)-5-isopropoxy-2-methylphenyl)piperidin-1-yl)methyl)phenyl)amino)pip eridine-2,6-dione] | 50 to 100 nM | A (A is defined as 0% ≤ substrate protein remaining % ≤ 80%) |  |  |  | 100 to 500 nM
Cc1cc(Nc2ncc(Cl)c(Nc3ccccc3S(=O)(=O)C(C)C)n2)c(OC(C)C)cc1C1CCN(Cc2cc(N3CCC(=O)NC3=O)ncc2F)CC1 [GT-07595, 1-(4-((4-(4-((5-chloro-4-((2-(isopropylsulfonyl)phenyl)amino)pyrimidin-2-yl)amino)-5-isopropoxy-2-methylphenyl)piperidin-1-yl)methyl)-5-fluoropyridin-2-yl)dihydropyrimidine-2,4(1H,3H)-dione] | 100 to 500 nM | A (A is defined as 0% ≤ substrate protein remaining % ≤ 80%) |  |  |  | 500 to 1000 nM
Cc1cc(Nc2ncc(Cl)c(Nc3ccccc3S(=O)(=O)C(C)C)n2)c(OC(C)C)cc1C1CCN(Cc2cnc(N3CCC(=O)NC3=O)cn2)CC1 [GT-07758, 1-(5-((4-(4-((5-chloro-4-((2-(isopropylsulfonyl)phenyl)amino)pyrimidin-2-yl)amino)-5-isopropoxy-2-methylphenyl)piperidin-1-yl)methyl)pyrazin-2-yl)dihydropyrimidine-2,4(1H,3H)-dione] |  | A (A is defined as 0% ≤ substrate protein remaining % ≤ 80%) |  |  |  | 
CCc1cc2c(cc1N1CCN(Cc3cc(N4CCC(=O)NC4=O)ncc3F)CC1)C(C)(C)c1[nH]c3cc(C#N)ccc3c1C2=O [GT-07833, 8-(4-((2-(2,4-dioxotetrahydropyrimidin-1(2H)-yl)-5-fluoropyridin-4-yl)methyl)piperazin-1-yl)-9-ethyl-6,6-dimethyl-11-oxo-6,11-dihydro-5H-benzo[b]carbazole-3-carbonitrile] |  | A (A is defined as 0% ≤ substrate protein remaining % ≤ 80%) |  |  |  | 
CCc1cc2c(cc1N1CCN(Cc3ccnc(N4CCC(=O)NC4=O)c3)CC1)C(C)(C)c1[nH]c3cc(C#N)ccc3c1C2=O [GT-07834, 8-(4-((2-(2,4-dioxotetrahydropyrimidin-1(2H)-yl)pyridin-4-yl)methyl)piperazin-1-yl)-9-ethyl-6,6-dimethyl-11-oxo-6,11-dihydro-5H-benzo[b]carbazole-3-carbonitrile] |  | A (A is defined as 0% ≤ substrate protein remaining % ≤ 80%) |  |  |  | 
CCc1cc2c(cc1N1CCN(Cc3cncc(N4CCC(=O)NC4=O)c3)CC1)C(C)(C)c1[nH]c3cc(C#N)ccc3c1C2=O [GT-07835, 8-(4-((5-(2,4-dioxotetrahydropyrimidin-1(2H)-yl)pyridin-3-yl)methyl)piperazin-1-yl)-9-ethyl-6,6-dimethyl-11-oxo-6,11-dihydro-5H-benzo[b]carbazole-3-carbonitrile] |  | A (A is defined as 0% ≤ substrate protein remaining % ≤ 80%) |  |  |  | 
CCc1cc2c(cc1N1CCN(Cc3cc(C4CCC(=O)NC4=O)cnc3F)CC1)C(C)(C)c1[nH]c3cc(C#N)ccc3c1C2=O (stereo not shown) [GT-07836, 8-(4-((5-(2,6-dioxopiperidin-3-yl)-2-fluoropyridin-3-yl)methyl)piperazin-1-yl)-9-ethyl-6,6-dimethyl-11-oxo-6,11-dihydro-5H-benzo[b]carbazole-3-carbonitrile] |  | A (A is defined as 0% ≤ substrate protein remaining % ≤ 80%) |  |  |  | 
CCc1cc2c(cc1N1CCC(N3CCN(Cc4ncc(N5CCC(=O)NC5=O)cc4F)CC3)CC1)C(C)(C)c1[nH]c3cc(C#N)ccc3c1C2=O [GT-07924, 8-(4-(4-((5-(2,4-dioxotetrahydropyrimidin-1(2H)-yl)-3-fluoropyridin-2-yl)methyl)piperazin-1-yl)piperidin-1-yl)-9-ethyl-6,6-dimethyl-11-oxo-6,11-dihydro-5H-benzo[b]carbazole-3-carbonitrile] |  | A (A is defined as 0% ≤ substrate protein remaining % ≤ 80%) |  |  |  | 
